For 22 molecules, IC50 and solubility results are on record in US12528783B2, “PqsR inverse agonists” (priority 2020, dated 2026).

Structures are written as SMILES. pIC50: −log10 of the molar value. Some results are limits rather than exact numbers.

The subject of data set [1] is P. aeruginosa pyocyanin production. The experiment in a line: Pyocyanin assay. It is filed as cell-based. As to conditions: Pseudomonas aeruginosa, PA14, 16 h, read-out: IC50-value towards pyocyanin production, PA14 in PPGAS medium, 16 h. As for the experimental part: Inhibition of P. aeruginosa pyocyanin production by compounds was determined photometrically as described before. In short, an overnight culture of PA14 in PPGAS medium was washed, diluted in medium to a start OD600 of 0.02, and incubated for 16 h (37° C., 200 rpm, relative humidity 75%) in the presence of test compounds. Then, cultures were extracted with chloroform and re-extracted with 0.2 M HCl. Protonated red colored pyocyanin was determined by measuring OD520 and normalizing to OD600.

Data set [2] has as its target T1, PqsR (Pseudomonas aeruginosa, UniProt Q9I4X0).
T1 construct: expressed in transfected cells; host or cells: Escherichia coli DH5a carrying pEAL08-2
Kind of data set: PqsR inverse agonistic activity, reporter gene assay in E. coli. The class given is cell-based. How it is done: Inhibition of pqsR-dependent gene expression of test compounds was determined in an E. coli based-galactosidase reporter gene assay. Escherichia coli DH5a was transfected with pEAL08-2 plasmid encoding pqsR under control of promoter tac and β-galactosidase reporter gene lacZ under control of promoter pqsA. Antagonistic effects of compounds were evaluated in the presence of/in competition to 50 nM PQS. A positive control was used to ensure the reliability of individual assays. First, PQS was diluted in methanol and added to the wells of a glass coated 96-deep-well plate, and the solvent was evaporated. Then, compounds were added in 5 μL DMSO to final concentrations of 0.001-10 μM. Overnight cultures of E. coli DH5a×pEAL08-2 were diluted 1:100 in LB medium with ampicillin (50 μg/ml) and incubated at 37° C. with shaking until it reached an OD600 of 0.2. Finally, 995 μL of culture was added to each well and the β-galactosidase activity was determined by ortho-nitrophenyl-β-galactoside conversion in permeabilized cells after a 2.5 h incubation period (37° C., 180 rpm). OD600, OD420, and OD550 were measured using POLARstar Omega (BMG Labtech, Ortenberg, Germany), and the activity was expressed as ratio of the slope of B-galactosidase activity between basal control (no PQS) and solvent control. IC50 values of antagonists were determined by variation of the concentration of the test compounds.
For orientation: A reporter such as luciferase makes a cellular process visible.

The nature of data set [3]: Kinetic Turbidimetric Aqueous Solubility. The class given is physicochemical. Particulars: aqueous buffer, kinetic from dmso stock, PBS buffer, room temperature. As for the experimental part:
Kinetic Turbidimetric Aqueous Solubility at room temperature for 5 min. Test compound was diluted in PBS buffer to give a range of concentrations (typically 0.4, 2, 4, 20, 40, 100, and 200 μM, final DMSO concentration 2%) and incubated at room temperature for 5 min. Absorbance was measured at a wavelength of 620 nm and the solubility was estimated from the concentration of test compound that produces an increase in absorbance above the vehicle control (i.e., […]). Data was analyzed by fitting a four parameter sigmoidal function to the measured and normalized absorbances and AUC calculation providing access to Log S (decadic logarithm of the solubility).

T1 sequence (Q9I4X0 whole entry): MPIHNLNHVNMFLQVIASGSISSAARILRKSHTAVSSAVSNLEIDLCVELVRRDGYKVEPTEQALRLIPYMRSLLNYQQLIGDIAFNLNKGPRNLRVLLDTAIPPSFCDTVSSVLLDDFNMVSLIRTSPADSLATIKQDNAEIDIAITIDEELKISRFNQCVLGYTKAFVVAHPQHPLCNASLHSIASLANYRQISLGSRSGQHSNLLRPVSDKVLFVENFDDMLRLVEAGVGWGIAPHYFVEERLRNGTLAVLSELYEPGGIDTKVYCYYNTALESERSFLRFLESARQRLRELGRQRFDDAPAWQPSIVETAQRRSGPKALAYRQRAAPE

As to `FC(F)(F)c1cc(SCc2nc3cc(NC4CCCCC4)ccc3[nH]2)ccn1` [Compound 17], the pIC50 (in general, −log10 of the IC50, conventionally taken in molar units) in data set [1] was 6.00 to 6.30; in data set [2] it was 6.60 to 7.29.

As to `FC(F)(F)c1cc(SCc2nc3cc(Cc4ccccc4)ccc3[nH]2)ccn1` [Compound 12], the pIC50 was 6.30 to 6.70 in data set [1] and not below 7.30 in data set [2]. The solubility (usually the dissolved amount per volume that the medium holds) at 5 min in data set [3] was more than 25 µM.

`COc1ccc(Nc2ccc3[nH]c(CSc4ccnc(C(F)(F)F)c4)nc3c2)cc1` [Compound 34] gave a negative logarithm of the IC50 (pIC50) in data set [2] of 6.60 to 7.29. The molecule also yielded a solubility at 5 min in data set [3] of more than 25 µM.

Turning to `Cc1cc(Nc2ccccc2)cc2nc(CSc3ccnc(C(F)(F)F)c3)[nH]c12` [Compound 59], the pIC50 in data set [1] was 6.70 to 7.00; in data set [2], not below 7.30. Further, in data set [3], the solubility at 5 min was more than 10 µM.

In the case of `FC(F)(F)c1cc(SCc2nc3ccc(Nc4ccccc4)cc3s2)ccn1` [Compound 16], the values for the pIC50 in data set [1] and in data set [2] were 6.00 to 6.30 and 6.60 to 7.29, respectively.

Turning to `Fc1cccc(F)c1Nc1ccc2[nH]c(CSc3ccnc(C(F)(F)F)c3)nc2c1` [Compound 42], the negative-log IC50 (pIC50) is 6.70 to 7.00 in data set [1] and not below 7.30 in data set [2]. Moreover, in data set [3], the solubility at 5 min is more than 25 µM.

For the molecule `FC(F)(F)c1cc(SCc2nc3ccc(Nc4ccccc4)cc3o2)ccn1` [Compound 15], the pIC50 is 6.30 to 6.70 in data set [1] and 6.60 to 7.29 in data set [2].

Consider `Fc1cccc(Nc2ccc3[nH]c(CSc4ccnc(C(F)(F)F)c4)nc3c2)c1F` [Compound 46], for which the negative logarithm of the IC50 (pIC50) in data set [1] is 6.30 to 6.70; in data set [2], 6.60 to 7.29. Moreover, the solubility at 5 min in data set [3] was more than 10 µM.

Take `Fc1cccc(Nc2ccc3[nH]c(CNc4ccnc(C(F)(F)F)c4)nc3c2)c1` [Compound 61]: the pIC50 is not below 7.00 in data set [1] and not below 7.30 in data set [2]. This molecule showed a solubility at 5 min in data set [3] not below 100 µM.

With `Nc1cc(SCc2nc3cc(Nc4ccccc4)ccc3[nH]2)cc(C(F)(F)F)n1` [Compound 13], the negative logarithm of the IC50 (pIC50) in data set [1] is 6.70 to 7.00. In data set [3], this molecule displayed a solubility at 5 min of more than 10 µM.

For the molecule `Fc1cncc(Nc2ccc3[nH]c(CSc4ccnc(C(F)(F)F)c4)nc3c2)c1` [Compound 41], the negative logarithm of the IC50 (pIC50) in data set [1] was 6.30 to 6.70. In addition, the solubility at 5 min in data set [3] was more than 50 µM.

For the molecule `Nc1cccc(-c2ncc(CNc3cc(Cl)nc(C(F)(F)F)c3)cn2)c1` [Compound 10], in data set [1], the pIC50 is 6.00 to 6.30. Besides, the solubility at 5 min in data set [3] was not below 100 µM.

As for `NC(=O)c1ccccc1Nc1ccc2[nH]c(CSc3ccnc(C(F)(F)F)c3)nc2c1` [Compound 35], the negative-log IC50 (pIC50) in data set [1] was 6.70 to 7.00. In data set [3], this molecule returned a solubility at 5 min of more than 50 µM.

For the molecule `Fc1cc(Nc2cccnc2)cc2nc(CSc3ccnc(C(F)(F)F)c3)[nH]c12` [Compound 58], the pIC50 in data set [1] is 6.30 to 6.70. In data set [3], the solubility at 5 min was more than 50 µM.

For `FC(F)(F)c1cc(SCc2nc3cc(Nc4cccnc4)ccc3[nH]2)ccn1` [Compound 19], the negative logarithm of the IC50 (pIC50) in data set [1] was 6.00 to 6.30. The solubility at 5 min in data set [3] is not below 100 µM.

Consider `Cc1ccc(Nc2ccc3[nH]c(CSc4ccnc(C(F)(F)F)c4)nc3c2)cc1` [Compound 31], for which the negative-log IC50 (pIC50) in data set [1] is 6.70 to 7.00. In addition, the solubility at 5 min in data set [3] was more than 10 µM.

In the case of `Cc1c(F)cc(Nc2ccc3[nH]c(CSc4ccnc(C(F)(F)F)c4)nc3c2)cc1F` [Compound 55], in data set [1], the negative logarithm of the IC50 (pIC50) was 6.70 to 7.00. Moreover, in data set [3], the solubility at 5 min was more than 10 µM.

With `Fc1ccc(F)c(Nc2cccc(-n3cc(CNc4cc(Cl)nc(C(F)(F)F)c4)nn3)c2)c1` [Compound 07], the negative logarithm of the IC50 (pIC50) in data set [1] was 6.70 to 7.00. This molecule also had a solubility at 5 min in data set [3] of more than 25 µM.

Turning to `Fc1cccc(Nc2cc(F)c3[nH]c(CSc4ccnc(C(F)(F)F)c4)nc3c2)c1` [Compound 57], the negative logarithm of the IC50 (pIC50) in data set [1] is not below 7.00. The same molecule showed a solubility at 5 min in data set [3] of more than 10 µM.

Take `Fc1cccc(Nc2cccc(-n3cc(CNc4ccnc(C(F)(F)F)c4)nn3)c2)c1` [Compound 03]: the pIC50 in data set [1] is 6.70 to 7.00. The solubility at 5 min in data set [3] is more than 10 µM.

Take `Nc1cc(SCc2nc3cc(Nc4cccnc4)ccc3[nH]2)cc(C(F)(F)F)n1` [Compound 20]: the pIC50 in data set [1] was 6.30 to 6.70. Also, the solubility at 5 min in data set [3] is more than 25 µM.

On to `Fc1cccc(Nc2ccc3[nH]c(COc4ccnc(C(F)(F)F)c4)nc3c2)c1` [Compound 64], for which the negative-log IC50 (pIC50) in data set [1] is 6.30 to 6.70. In addition, the solubility at 5 min in data set [3] is more than 25 µM.
